This assay in a line: Cytotoxicity against human NCI60 cells. As to conditions: read-out: LC50 (the source's name). It counts as functional.

For `CC(C)[C@@H]1NC(=O)c2csc(n2)[C@@H](C(C)C)NC(=O)[C@H]2N=C(O[C@@H]2C)[C@H](C(C)C)NC(=O)c2csc(n2)[C@@H](Cc2ccccc2)NC(=O)[C@@H]2COC1=N2` [PATELLAMIDE F], the CC50 was 48 µM. Next, `CC(C)C[C@H]1NC(=O)[C@H]2N=C(O[C@@H]2C)[C@H]2CSSC[C@@H](NC(=O)c3csc1n3)C1=N[C@H](C(=O)N[C@H](CC(C)C)c3nc(cs3)C(=O)N2)[C@@H](C)O1` [ULITHIACYCLAMIDE]: 3 µM. The value for `CC[C@H](C)[C@@H]1NC(=O)c2csc(n2)[C@@H](C)NC(=O)[C@H]2N=C(O[C@@H]2C)[C@H](CC(C)C)NC(=O)c2csc(n2)[C@@H](Cc2ccccc2)NC(=O)[C@H]2N=C1O[C@@H]2C` [PATELLAMIDE B] was 13 µM.

(Values after ChEMBL document CHEMBL1159239, “Patellamide F, A new cytotoxic cyclic peptide from the colonial ascidian Lissoclinum patella” (1995).)
